# Assay results: ChEMBL document CHEMBL1201862, “PubChem BioAssay data set” (2004)
# The source made the active and inactive calls.
# Columns and labels:
# [1] = biological target: T1, Corticotropin-releasing factor receptor 2/Corticotropin-releasing factor-binding protein (Homo sapiens, UniProt P24387+Q13324); experiment: activators of CRF receptor 2 with binding protein – uHTS hits, confirmation (AID 602473); type: functional; conditions: read-out: EC50_Mean
# T1 sequence (Q13324 whole entry): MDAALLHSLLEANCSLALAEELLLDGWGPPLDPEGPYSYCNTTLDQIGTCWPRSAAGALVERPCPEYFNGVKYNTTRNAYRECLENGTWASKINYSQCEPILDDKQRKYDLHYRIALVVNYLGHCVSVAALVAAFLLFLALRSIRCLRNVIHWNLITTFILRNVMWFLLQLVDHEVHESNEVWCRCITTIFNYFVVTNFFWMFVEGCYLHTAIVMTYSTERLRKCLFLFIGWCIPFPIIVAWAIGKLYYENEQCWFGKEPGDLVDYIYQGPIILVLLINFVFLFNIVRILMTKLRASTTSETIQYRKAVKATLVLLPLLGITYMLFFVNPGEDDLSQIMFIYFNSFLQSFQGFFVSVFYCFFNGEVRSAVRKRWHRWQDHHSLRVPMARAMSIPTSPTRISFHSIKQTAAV
# T1 sequence (P24387 whole entry): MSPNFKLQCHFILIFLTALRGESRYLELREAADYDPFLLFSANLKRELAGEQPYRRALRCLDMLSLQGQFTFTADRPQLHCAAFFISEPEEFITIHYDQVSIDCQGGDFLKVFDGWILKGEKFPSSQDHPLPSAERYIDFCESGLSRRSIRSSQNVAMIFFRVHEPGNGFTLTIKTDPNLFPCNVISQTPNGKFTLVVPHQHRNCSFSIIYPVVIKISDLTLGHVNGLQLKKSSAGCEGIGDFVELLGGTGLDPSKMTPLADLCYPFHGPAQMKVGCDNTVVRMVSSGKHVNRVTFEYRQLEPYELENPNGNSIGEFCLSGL
# [2] = biological target: T1, Corticotropin-releasing factor receptor 2/Corticotropin-releasing factor-binding protein; experiment: Dose Response confirmation of uHTS hits for small molecule antagonists of the CRF-binding protein and CRF-R2 receptor complex.; type: functional; conditions: read-out: IC50_Mean
# [3] = CRF-BP/CRF-R2 complex antagonists, dose response, cell-based, uHTS hits, 384-well (AID 651639); type: functional, Homo sapiens; conditions: read-out: IC50_Mean
# [4] = AlphaScreen signal interference compounds, dose response, artefact control for ARNT-TACC3 interaction inhibitor project, biochemical, luminescence, cherry-pick (AID 651705); type: functional;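 also: AlphaScreen bead proximity signal that flags compounds interfering with the detection technology; potency reflects signal decrease which marks the compound as an assay artifact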
# Melanocortin receptor 4 = Melanocortin receptor 4 (Homo sapiens, UniProt P32245); type: functional, cell-based;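 also: Cell-based assay with luminescence read-out, confirmatory dose-response testing for agonist activity of biased ligands at MC4R; human U2OS cells with tagged receptor and beta-arrestin; potency of agonists that increase receptor coupling to beta-arrestin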
# A-375 = experiment: MITF: Counter assay: A375 proliferation Measured in Cell-Based System Using Plate Reader - 2084-03_Inhibitor_Dose_DryPowder_Activity. [Related pubchem assays (depositor defined):AID488944]; type: functional; conditions: Homo sapiens
# [5] = biological target: T2, Ubiquitin-conjugating enzyme E2 N (Homo sapiens, UniProt P61088); type: functional;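 also: Dose-response confirmation in a TR-FRET assay detecting UBC13-driven polyubiquitin chain formation, inhibition measured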
# T2 sequence (P61088 whole entry): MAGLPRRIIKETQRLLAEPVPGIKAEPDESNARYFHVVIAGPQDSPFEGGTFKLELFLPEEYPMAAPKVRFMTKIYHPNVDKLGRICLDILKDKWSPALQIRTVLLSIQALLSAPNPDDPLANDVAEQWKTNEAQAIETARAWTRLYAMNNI
# [6] = biological target: T3, Microphthalmia-associated transcription factor (Homo sapiens, UniProt O75030); experiment: TRPM1 promoter luciferase signal decrease, dose response, MITF inhibitor project, cell-based, SK-MEL-5, cherry-picked, set 3 (AID 493073); type: functional
# T3 sequence (O75030 whole entry): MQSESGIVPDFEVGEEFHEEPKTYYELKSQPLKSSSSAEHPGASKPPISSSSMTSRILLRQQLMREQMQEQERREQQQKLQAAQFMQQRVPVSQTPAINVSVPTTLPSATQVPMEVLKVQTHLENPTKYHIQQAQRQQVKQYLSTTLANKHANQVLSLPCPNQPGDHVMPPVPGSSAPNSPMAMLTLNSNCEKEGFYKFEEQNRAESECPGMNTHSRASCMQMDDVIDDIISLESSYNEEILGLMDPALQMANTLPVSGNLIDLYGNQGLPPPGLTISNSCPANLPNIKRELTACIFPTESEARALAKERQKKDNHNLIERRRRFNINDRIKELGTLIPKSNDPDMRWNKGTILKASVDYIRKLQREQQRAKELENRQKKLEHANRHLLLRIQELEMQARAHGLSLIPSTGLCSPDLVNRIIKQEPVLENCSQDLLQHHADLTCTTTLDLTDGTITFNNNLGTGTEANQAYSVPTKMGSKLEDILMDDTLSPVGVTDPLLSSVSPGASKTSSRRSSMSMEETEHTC
# Cytochrome P450 3A4 = Cytochrome P450 3A4 (Homo sapiens, UniProt P08684); conditions: Potency;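 also: confirmatory qHTS run detecting inhibitors and substrates of CYP3A4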
# [7] = biological target: Tyrosine-protein phosphatase non-receptor type 5 (Homo sapiens, UniProt P54829); experiment: STEP phosphatase inhibitors, confirmation, biochemical, fluorescence intensity, uHTS hits (AID 602372); type: functional; conditions: read-out: IC50_Mean
# Cytochrome P450 2D6 = Cytochrome P450 2D6 (Homo sapiens, UniProt P10635);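 also: CYP2D6 member of a cytochrome P450 panel assay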
# [8] = biological target: Tyrosine-protein phosphatase non-receptor type 11 (Homo sapiens, UniProt Q06124); experiment: SHP2 phosphatase inhibition, dose response, selectivity assay for STEP inhibitor project, biochemical (AID 602367); type: functional; conditions: read-out: IC50_Mean
# [9] = biological target: Dual specificity protein phosphatase 3 (Homo sapiens, UniProt P51452); experiment: VHR phosphatase inhibition, dose response, selectivity assay for STEP inhibitor project, biochemical (AID 602374); type: functional; conditions: read-out: IC50_Mean
# [10] = inhibitors of firefly luciferase expression or activity, dose response, H4 neuroglioma cells, luminescence (AID 1990); type: functional, cell-based
# BJ [11] = experiment: cytotoxicity toward BJ-TERT-LT-ST fibroblasts, dose response, cell-based, RAS-independent, luminescence (AID 1935); type: functional; conditions: Homo sapiens;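 also: BJ fibroblasts immortalized with TERT plus LT and ST oncogenes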
# BJ [12] = experiment: cytotoxicity toward BJ-TERT fibroblasts, dose response, cell-based, RAS-independent, luminescence (AID 1933); type: functional; conditions: Homo sapiens
# [13] = Luminescence Cell-Based Dose Response HTS to Identify Inhibitors of 5'UTR Stem-Loop Driven Prion Protein mRNA Translation in H4 Neuroglioblastoma Cells. [Related pubchem assays: 1827 (Project Summary), 1813 (Primary HTS)]; type: functional
# BJ [14] = experiment: cytotoxicity toward Ras-transformed BJeLR fibroblasts, dose response, cell-based, alamar blue fluorescence, cherrypicked samples (AID 2631); type: functional; conditions: Homo sapiens;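 also: confirmatory dose-response assay in RAS-dependent BJ fibroblasts engineered with TERT, LT and ST, with cytotoxicity read by fluorescence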
# [15] = inhibitors of SNCA 5'UTR-driven reporter translation, confirmation, H4 neuroglioma cells, luminescence (AID 1988); type: functional, cell-based
# BJ [16] = experiment: cells; type: functional, cell-based; conditions: Homo sapiens
# [17] = cytotoxicity toward DRD oncogenic fibroblasts, dose response, cell-based, non-viral oncogenic, luminescence (AID 1934); type: functional; conditions: Homo sapiens
# [18] = biological target: T4, Short transient receptor potential channel 4 (Mus musculus, UniProt Q9QUQ5); experiment: mouse TRPC4 channel inhibitors, dose response, cell-based, HEK293 TRPC4/mu-opioid, Fluo-4 calcium (AID 434942); type: functional;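 also: potency of inhibitors blocking the TRPC4 calcium response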
# T4 sequence (Q9QUQ5 whole entry): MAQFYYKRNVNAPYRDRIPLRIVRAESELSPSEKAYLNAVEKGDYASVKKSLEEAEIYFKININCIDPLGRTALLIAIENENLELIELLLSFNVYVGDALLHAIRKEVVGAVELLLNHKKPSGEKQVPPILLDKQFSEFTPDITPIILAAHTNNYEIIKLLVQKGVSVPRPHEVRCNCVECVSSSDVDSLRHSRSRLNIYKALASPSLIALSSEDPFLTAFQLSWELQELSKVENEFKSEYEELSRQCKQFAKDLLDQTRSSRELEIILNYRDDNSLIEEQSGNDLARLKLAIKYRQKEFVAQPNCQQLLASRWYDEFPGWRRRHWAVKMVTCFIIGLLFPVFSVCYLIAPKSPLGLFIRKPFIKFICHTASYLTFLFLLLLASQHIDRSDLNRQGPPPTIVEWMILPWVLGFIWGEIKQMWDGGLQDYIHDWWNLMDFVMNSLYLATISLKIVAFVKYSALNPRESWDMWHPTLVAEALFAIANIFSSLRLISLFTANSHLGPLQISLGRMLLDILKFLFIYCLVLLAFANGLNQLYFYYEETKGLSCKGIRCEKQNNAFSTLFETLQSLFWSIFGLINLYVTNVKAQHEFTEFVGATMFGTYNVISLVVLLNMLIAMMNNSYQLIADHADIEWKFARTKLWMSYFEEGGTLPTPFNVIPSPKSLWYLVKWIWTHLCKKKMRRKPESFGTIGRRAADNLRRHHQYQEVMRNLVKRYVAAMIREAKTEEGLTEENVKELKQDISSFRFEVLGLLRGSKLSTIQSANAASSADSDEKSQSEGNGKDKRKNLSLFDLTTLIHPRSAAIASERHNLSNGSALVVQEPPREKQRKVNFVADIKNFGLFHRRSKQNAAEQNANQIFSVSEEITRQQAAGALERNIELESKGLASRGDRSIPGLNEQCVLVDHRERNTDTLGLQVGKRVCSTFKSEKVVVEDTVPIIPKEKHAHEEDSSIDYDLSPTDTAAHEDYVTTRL
# [19] = biological target: Ras and Rab interactor 1/Tyrosine-protein kinase ABL1 (Homo sapiens, UniProt P00519+Q13671); type: functional;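 also: biochemical TR-FRET dose-response test measuring inhibition of binding between Rin1 and Abl proteins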
# [20] = cytotoxicity in HEK-293T cells, dose response, cytotoxicity control for TCR NF-kB inhibitor project, luminescence, T-cell screen hits (AID 489026); type: functional, cell-based;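 also: cells exposed to compound about 14 hours before the viability readout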
# Chain of Ras and Rab interactor 1/Tyrosine-protein kinase ABL1 (P00519 whole entry): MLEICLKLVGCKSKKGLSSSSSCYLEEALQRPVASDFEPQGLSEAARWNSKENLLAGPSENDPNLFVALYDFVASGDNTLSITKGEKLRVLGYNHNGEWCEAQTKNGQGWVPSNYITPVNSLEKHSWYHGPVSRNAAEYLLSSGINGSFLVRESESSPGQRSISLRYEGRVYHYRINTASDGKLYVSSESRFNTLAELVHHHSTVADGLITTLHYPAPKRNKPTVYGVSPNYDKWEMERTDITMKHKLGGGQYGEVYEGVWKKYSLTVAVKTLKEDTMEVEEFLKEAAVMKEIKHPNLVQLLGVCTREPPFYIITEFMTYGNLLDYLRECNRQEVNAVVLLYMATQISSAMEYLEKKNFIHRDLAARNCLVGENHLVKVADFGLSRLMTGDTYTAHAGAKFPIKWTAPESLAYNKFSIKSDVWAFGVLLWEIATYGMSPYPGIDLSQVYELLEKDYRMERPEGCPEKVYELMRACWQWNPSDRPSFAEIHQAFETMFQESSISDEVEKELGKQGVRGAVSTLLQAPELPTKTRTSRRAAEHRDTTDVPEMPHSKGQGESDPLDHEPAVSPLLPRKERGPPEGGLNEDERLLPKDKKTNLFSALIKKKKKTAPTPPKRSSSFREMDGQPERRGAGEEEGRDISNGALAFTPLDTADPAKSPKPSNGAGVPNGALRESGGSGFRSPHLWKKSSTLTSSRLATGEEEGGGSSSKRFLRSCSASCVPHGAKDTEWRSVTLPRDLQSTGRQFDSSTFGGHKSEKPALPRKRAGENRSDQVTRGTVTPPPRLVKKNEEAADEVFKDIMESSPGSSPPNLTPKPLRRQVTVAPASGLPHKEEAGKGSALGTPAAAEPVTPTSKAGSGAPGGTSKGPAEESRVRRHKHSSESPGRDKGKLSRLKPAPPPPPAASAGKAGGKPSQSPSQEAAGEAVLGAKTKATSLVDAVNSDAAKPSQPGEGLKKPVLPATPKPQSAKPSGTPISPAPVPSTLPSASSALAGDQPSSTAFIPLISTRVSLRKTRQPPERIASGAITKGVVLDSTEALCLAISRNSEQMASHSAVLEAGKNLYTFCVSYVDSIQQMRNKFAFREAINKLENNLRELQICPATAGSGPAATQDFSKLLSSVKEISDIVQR
# Chain of Ras and Rab interactor 1/Tyrosine-protein kinase ABL1 (Q13671 whole entry): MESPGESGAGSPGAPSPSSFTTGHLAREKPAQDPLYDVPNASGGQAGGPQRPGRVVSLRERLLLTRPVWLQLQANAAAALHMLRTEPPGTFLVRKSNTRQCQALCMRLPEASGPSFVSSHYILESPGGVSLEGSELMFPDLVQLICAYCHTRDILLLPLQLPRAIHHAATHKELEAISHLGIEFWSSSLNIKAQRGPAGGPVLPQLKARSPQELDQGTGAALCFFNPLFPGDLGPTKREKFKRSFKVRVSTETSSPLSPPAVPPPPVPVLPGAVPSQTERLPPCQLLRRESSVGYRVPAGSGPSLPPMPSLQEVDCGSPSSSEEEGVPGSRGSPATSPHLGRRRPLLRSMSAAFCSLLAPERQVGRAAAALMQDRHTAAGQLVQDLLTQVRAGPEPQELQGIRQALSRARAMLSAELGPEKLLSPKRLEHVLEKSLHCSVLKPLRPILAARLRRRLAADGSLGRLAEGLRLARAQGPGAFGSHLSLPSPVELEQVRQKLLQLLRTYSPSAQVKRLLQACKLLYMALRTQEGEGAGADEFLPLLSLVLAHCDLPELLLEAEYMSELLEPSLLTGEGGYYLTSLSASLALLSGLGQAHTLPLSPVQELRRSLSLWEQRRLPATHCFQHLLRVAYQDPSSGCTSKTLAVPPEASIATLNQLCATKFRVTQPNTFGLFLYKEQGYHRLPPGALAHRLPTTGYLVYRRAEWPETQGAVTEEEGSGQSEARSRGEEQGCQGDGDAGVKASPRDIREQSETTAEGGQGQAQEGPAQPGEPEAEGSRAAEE
# Chain of Melanocortin receptor 4 (P32245 whole entry): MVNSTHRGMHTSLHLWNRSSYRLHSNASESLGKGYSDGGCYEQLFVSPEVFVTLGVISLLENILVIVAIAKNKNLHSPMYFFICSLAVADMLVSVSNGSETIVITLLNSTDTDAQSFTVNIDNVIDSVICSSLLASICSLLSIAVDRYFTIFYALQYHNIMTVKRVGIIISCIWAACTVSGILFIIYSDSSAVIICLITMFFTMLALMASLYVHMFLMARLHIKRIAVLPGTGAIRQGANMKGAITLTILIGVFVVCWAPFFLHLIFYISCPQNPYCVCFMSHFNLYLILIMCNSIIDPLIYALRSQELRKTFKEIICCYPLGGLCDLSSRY
# Chain of Cytochrome P450 3A4 (P08684 whole entry): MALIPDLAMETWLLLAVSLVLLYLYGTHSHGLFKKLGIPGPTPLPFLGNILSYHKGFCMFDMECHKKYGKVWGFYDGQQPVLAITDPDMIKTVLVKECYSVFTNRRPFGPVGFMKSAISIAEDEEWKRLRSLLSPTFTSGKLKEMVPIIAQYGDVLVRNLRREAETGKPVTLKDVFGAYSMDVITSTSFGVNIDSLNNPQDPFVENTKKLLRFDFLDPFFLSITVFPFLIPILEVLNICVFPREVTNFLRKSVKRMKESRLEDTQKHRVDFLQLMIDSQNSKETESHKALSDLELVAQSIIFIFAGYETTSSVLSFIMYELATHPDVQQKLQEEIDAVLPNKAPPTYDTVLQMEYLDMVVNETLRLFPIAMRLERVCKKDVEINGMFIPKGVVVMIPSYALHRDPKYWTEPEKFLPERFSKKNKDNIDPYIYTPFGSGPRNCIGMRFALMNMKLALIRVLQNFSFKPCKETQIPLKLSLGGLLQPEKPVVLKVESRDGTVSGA
# Chain of Dual specificity protein phosphatase 3 (P51452 whole entry): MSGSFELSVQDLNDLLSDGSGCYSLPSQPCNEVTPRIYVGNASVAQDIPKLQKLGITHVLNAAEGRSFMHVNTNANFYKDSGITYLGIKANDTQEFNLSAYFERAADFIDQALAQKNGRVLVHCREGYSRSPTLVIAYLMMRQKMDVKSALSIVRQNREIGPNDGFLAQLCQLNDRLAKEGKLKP
# Chain of Tyrosine-protein phosphatase non-receptor type 11 (Q06124 whole entry): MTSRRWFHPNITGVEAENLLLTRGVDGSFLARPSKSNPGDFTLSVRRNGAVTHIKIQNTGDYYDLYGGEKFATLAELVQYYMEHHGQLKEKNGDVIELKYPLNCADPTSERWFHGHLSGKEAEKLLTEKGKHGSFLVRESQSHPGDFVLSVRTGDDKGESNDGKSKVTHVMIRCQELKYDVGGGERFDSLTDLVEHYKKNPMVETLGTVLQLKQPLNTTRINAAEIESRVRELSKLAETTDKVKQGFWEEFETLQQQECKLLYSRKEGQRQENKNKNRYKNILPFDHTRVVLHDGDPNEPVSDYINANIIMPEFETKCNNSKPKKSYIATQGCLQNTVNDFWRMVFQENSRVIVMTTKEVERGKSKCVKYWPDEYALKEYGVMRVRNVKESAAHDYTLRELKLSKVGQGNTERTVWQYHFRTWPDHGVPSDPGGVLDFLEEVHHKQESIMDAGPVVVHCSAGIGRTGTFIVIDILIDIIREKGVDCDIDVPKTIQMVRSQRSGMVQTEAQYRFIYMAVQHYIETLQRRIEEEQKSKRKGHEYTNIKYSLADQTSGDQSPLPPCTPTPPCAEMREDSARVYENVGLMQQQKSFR
# Chain of Tyrosine-protein phosphatase non-receptor type 5 (P54829 whole entry): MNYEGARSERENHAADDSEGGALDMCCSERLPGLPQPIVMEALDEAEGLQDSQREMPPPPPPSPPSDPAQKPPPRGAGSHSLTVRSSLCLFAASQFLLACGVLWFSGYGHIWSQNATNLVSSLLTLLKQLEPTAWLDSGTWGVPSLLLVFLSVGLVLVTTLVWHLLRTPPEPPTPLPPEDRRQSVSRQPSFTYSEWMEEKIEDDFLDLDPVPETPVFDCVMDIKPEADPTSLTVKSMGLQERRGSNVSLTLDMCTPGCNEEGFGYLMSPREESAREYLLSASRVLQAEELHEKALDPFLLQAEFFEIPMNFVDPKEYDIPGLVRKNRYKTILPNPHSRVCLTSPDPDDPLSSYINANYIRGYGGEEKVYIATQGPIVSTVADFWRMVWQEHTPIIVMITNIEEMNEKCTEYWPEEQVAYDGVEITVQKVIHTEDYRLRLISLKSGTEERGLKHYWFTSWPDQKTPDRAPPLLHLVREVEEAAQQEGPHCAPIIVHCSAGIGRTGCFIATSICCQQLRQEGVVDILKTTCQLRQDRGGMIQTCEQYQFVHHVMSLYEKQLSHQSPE
# Chain of Cytochrome P450 2D6 (P10635 whole entry): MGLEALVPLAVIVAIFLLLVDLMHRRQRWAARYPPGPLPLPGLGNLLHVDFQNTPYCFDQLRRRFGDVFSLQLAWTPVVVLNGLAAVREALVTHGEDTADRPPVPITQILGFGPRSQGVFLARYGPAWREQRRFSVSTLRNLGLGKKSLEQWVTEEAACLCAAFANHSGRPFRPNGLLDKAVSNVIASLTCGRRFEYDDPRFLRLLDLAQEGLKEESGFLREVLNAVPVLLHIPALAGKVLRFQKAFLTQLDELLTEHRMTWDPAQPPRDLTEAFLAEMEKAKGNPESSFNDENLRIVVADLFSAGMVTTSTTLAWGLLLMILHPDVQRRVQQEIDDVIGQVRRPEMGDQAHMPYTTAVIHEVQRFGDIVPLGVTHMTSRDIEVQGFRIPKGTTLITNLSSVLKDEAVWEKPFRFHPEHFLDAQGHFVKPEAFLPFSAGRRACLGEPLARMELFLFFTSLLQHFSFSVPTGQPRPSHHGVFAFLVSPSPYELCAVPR
structure (smiles),measurement,setting,value
Cc1ccc(N(C(=O)c2nsc(Cl)c2Cl)C(C(=O)NC2CCCC2)c2ccc(O)cc2)cc1C (stereo not drawn),EC50,[1],> 53 µM (inactive)
same,IC50,[2],5.91 µM (active)
same,IC50,[3],> 20 µM (inactive)
NNc1ccc(S(=O)(=O)N2CCCCC2)cn1,AC50,[4],87.7 µM (active)
CCCCCCCNC(=O)C1(CC2CC(c3ccc(Cl)cc3)=NO2)CCNCC1 (stereo not drawn),EC50,Melanocortin receptor 4,> 89.2 µM (inactive)
same,AC50,A-375,19.9 µM (active)
same,IC50,[5],> 20 µM (inactive)
same,AC50,[6],14 µM (active)
Cc1nnc(NC(=O)c2ccc(S(=O)(=O)N3CC(C)OC(C)C3)cc2)o1 (stereo not drawn),AC50,[4],122 µM (active)
Oc1cc(Cl)c(Cl)c(Cl)c1,AC50,Cytochrome P450 3A4,12.6 µM (inconclusive)
same,EC50,[1],> 53 µM (inactive)
same,IC50,[2],9.09 µM (active)
same,IC50,[3],> 20 µM (inactive)
OCCN1CCN(C(=S)c2ccc(Br)cc2)CC1,IC50,[7],20.1 µM (inactive)
same,AC50,Cytochrome P450 2D6,0.0224 µM (inconclusive)
same,IC50,[8],3.34 µM (active)
same,IC50,[9],1.3 µM (active)
COc1ccc2c(c1)sc(N)[n+]2Cc1cc(C)cc2cccnc12,EC50,[10],7.07 µM (inconclusive)
same,EC50,BJ [11],1.5 µM (inconclusive)
same,EC50,BJ [12],1.98 µM (active)
same,EC50,[13],8.01 µM (active)
same,EC50,BJ [14],0.605 µM (active)
same,EC50,[15],0.2 µM (active)
same,EC50,BJ [16],1.55 µM (inconclusive)
same,EC50,[17],1.61 µM (active)
same,EC50,[18],1.33 µM (active)
COc1ccc(Cl)cc1NC(=O)CN(C)C(=O)c1cc(-c2ccncc2)nc2ccccc12,IC50,[19],1.86 µM (active)
COc1cccc(-c2cnc3c(NC=O)cc(-c4ccoc4)cn23)c1,EC50,Melanocortin receptor 4,> 89.2 µM (inactive)
O=C(N/N=C/c1ccccc1Cl)c1[nH]c2ccc(Br)cc2c1-c1ccccc1,EC50,[10],0.304 µM (active)
same,EC50,BJ [11],0.748 µM (inconclusive)
same,EC50,BJ [12],0.608 µM (active)
same,EC50,[13],0.136 µM (active)
same,EC50,BJ [14],0.2 µM (active)
same,EC50,[15],0.163 µM (active)
same,IC50,[20],> 80 µM (inactive)
same,EC50,BJ [16],27.5 µM (active)
same,EC50,[17],0.615 µM (active)
O=C(Cc1ccc(NC(=O)C2CCN(C(=O)C3CCC3)CC2)cc1)Nc1ccc(C(=O)N2CCOCC2)cc1,IC50,[19],16.5 µM (inactive)
